Experimental data: patent publication US8901305B2, “Aryl lactam kinase inhibitors” (Bristol-Myers Squibb Company, priority 2012, dated 2014)

Experiments:
[1] = biological target: T1, AAK1 (full length human) with AP2M1 in HEK293F cells (Homo sapiens, UniProt Q2M2I8); assay: HEK281 cell-based assay (phospho-mu2 Western blot in transfected HEK293F cells); details: 3 hours, inhibition of mu2 phosphorylation
T1 construct: expressed in transfected cells; host or cells: HEK293F
Description: HEK293F cells were cultured in media containing DMEM (Gibco, cat. #11965), 10% FBS (SAFC Biosciences, cat. #12103C), 1×GPS (glutamine, penicillin and streptomycin). On day one, cells were plated on a 10 cm dish so that they are ˜80% confluent at time of transfection. Roughly 12 million cells were in a 10 cm dish at time of transfection. On day two, each dish was transfected with 48 ug DNA and 144 ul Lipofectamine 2000 (Invitrogen, cat. #11668-019). The DNA was comprised of a mixture (per 10 cm dish) containing 3 ug AAK1/HA/pIRES (full length human, NCBI accession no. NP_055726.2), 45 μg Flag/AP2MI/pcDNA (full length human), and 1.5 ml OPTI-MEM. The Lipofectamine 2000 is made up of a mixture (per 10 cm dish) containing 144 μl Lipofectamine 2000 and 1.5 ml OPTI-MEM. Each mixture was transferred to individual 15 ml tubes and incubated at RT for 5 minutes, and then the two mixes were combined and incubated at RT for 20 minutes. Growth media was then aspirated from each 10 cm plate and replaced with 10 ml of DMEM+10% FBS (no GPS). Finally, 3 ml DNA/Lipofectamine mix was added to each 10 cm dish and mix gently followed by incubate of plate overnight at 37° C. and 5% CO2.
On day three, compounds were diluted in 100% DMSO at 1000× final concentration, followed by 3-fold serial dilutions for a total of 5 concentrations tested. Four compounds were tested per 10 cm dish. One ul of each compound dilution was then pipetted into a deep-well, 96-well plate, followed by addition of 500 μl DMEM+0.5% FBS into each well for a 2× final concentration of each compound. Cells were resuspended in a 10 cm dish by simple pipetting (HEK293 cells come off the plate that easy at this point) and then transferred to a 50 ml conical tube and pelleted by centrifugation at 1000 rpm for 5 min. Cell pellets were then resuspended in 2.75 ml DMEM+0.5% FBS per 10 cm dish and 100 μl of cell suspension transferred into each well of 96-well TC plate. Finally, 100 μl of 2× compound diluted in DMEM+0.5% FBS was then added into wells containing cell suspension for a 1× final concentration. Plates were then incubated at 37° C. and 5% CO2 for 3 hours followed by transferring of cell suspensions from each well into 12-tube PCR strips. The PCR strips were spun in a tip rack at 1000 rpm for 5 minutes to pellet cells and media was then removed by pipetting without disturbing the cell pellet.
To prepare for Western Blot analysis, cell pellets were resuspend in 40 ul 1×LDS-PAGE sample buffer (Invitrogen, cat. # NP0008)+2× Halt phosphatase and protease inhibitor cocktail (Thermo Scientific, cat. #1861284), followed by sonicating each with microtip sonicator set at 5 for 8-10 seconds. Five ul of 10× NuPage Sample Reducing Agent (with […]) was to each sample followed by heat denaturing at 70 C for 10 min on PCR machine. A total of 10 μl per sample was loaded into each lane of a 4-20% Tris-Glycine Criterion 26-well gel (Biorad, cat. #345-0034) for the phospho-mu2 blot and 10 μl per lane in a 4-12% Bis-Tris (+MES buffer) NuPAGE 26-well gel (Invitrogen, cat. # WG1403BX10) for the mu2 blot. For controls, 2 ng of phospho-mu2 or 20 ng mu2/Flag proteins were loaded in the last well of each gel. After SDS-PAGE, samples on each gel were transferred to PVDF membrane using an iBlot and membranes were blocked for one hour in TBST+5% milk, followed by wash 3× for 5-10 min with TBST. Criterion gels were probed with rabbit anti-phospho-mu2 (1:5000; a rabbit polyclonal antibody produced by New England Peptide and affinity purified at Lexicon) in TBST+5% BSA, whereas, NuPAGE gels were probed with mouse anti-Flag (1:500; Sigma, cat. # F1804) in TBST+5% milk, and these primary antibodies were incubated overnight at 4° C. on a rocker. […]

GST-Xa-hAAK1 = biological target: T2, GST-Xa-hAAK1 (Homo sapiens, UniProt Q2M2I8); assay: AAK1 kinase assay; format: biochemical; details: ATP 22 μM, 3 hours at room temperature
T2 construct: made in house
Method in brief: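 Bacterially expressed GST-Xa-hAAK1 was combined with substrates and compounds (eleven concentrations) and incubated 3 h at room temperature, then stopped with EDTA. Fluorescent substrate and phosphorylated product were separated electrophoretically (Caliper LabChip), and IC50 values came from non-linear regression.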

T2 sequence (Q2M2I8 whole entry): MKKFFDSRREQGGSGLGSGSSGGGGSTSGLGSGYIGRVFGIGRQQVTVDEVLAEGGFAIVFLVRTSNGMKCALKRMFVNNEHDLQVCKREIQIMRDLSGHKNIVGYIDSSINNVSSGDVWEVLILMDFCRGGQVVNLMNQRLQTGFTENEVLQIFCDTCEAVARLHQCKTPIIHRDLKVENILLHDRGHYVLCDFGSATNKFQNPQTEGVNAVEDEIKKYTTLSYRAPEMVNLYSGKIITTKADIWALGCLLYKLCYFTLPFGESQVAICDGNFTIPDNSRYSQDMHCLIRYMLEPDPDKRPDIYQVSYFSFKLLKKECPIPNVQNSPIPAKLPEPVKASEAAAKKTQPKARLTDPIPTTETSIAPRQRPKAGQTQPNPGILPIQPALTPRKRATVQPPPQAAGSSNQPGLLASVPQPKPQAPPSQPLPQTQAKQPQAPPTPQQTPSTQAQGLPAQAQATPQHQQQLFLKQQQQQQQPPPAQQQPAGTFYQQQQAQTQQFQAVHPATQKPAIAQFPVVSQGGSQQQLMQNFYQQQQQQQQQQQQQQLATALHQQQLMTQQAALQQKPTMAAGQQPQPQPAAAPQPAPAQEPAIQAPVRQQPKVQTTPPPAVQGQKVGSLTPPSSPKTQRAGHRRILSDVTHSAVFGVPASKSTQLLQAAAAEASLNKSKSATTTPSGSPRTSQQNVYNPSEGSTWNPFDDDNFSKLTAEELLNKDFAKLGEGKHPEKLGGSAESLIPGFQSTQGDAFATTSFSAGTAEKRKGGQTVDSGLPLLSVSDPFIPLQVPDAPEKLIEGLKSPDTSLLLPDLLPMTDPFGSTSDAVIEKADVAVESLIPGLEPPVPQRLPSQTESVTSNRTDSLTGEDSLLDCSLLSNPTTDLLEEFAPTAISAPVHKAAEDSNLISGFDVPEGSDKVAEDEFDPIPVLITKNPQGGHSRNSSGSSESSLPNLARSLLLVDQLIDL
T1 sequence (Q2M2I8 whole entry): as above

SMILES | IC50 [1] [nM] | IC50 (GST-Xa-hAAK1; given as IC50 range) [nM] | IC50 (GST-Xa-hAAK1) [nM] | IC50 ([1]; given as IC50 range) [nM]
CC(C)C[C@H](N)COc1cc2c(cc1C1CC1)c1ccncc1c(=O)n2C [Example 6, (S)-8-((2-amino-4-methylpentyl)oxy)-9-cyclopropyl-6-methylbenzo[c][2,7]naphthyridin-5(6H)-one] | 2.1 | 1 to 10 |  | 
C=CCn1c(=O)c2cnccc2c2ccc(OC[C@@H](N)CC(C)C)cc21 [Example 9, (S)-6-allyl-8-((2-amino-4-methylpentyl)oxy)benzo[c][2,7]naphthyridin-5(6H)-one] | 24 |  | 9.7 | 
CC(C)C[C@H](N)COc1cc2c(cc1F)c1ccncc1c(=O)n2C [Example 14, (S)-8-((2-amino-4-methylpentyl)oxy)-9-fluoro-6-methylbenzo[c][2,7]naphthyridin-5(6H)-one] |  |  | 7 | 1 to 10
Cn1c(=O)c2cnccc2c2ccc(OCC(N)CCC(F)(F)F)cc21 (centres unmarked) [Example 15, 8-(2-amino-5,5,5-trifluoropentyloxy)-6-methylbenzo[c][2,7]naphthyridin-5(6H)-one] |  | 10 to 100 |  | 10 to 100
Cc1nccc2c1c(=O)n(C)c1cc(OC[C@@H](N)CC(C)C)ccc21 [Example 16, (S)-8-((2-amino-4-methylpentyl)oxy)-4,6-dimethylbenzo[c][2,7]naphthyridin-5(6H)-one] |  | 10 to 100 |  | 10 to 100
CC(C)C[C@H](N)COc1ccc2c3ccnc(N)c3c(=O)n(C)c2c1 [Example 17, (S)-4-amino-8-(2-amino-4-methylpentyloxy)-6-methylbenzo[c][2,7]naphthyridin-5(6H)-one] |  |  | 3 | 1 to 10
Cc1nccc2c1c(=O)n(C)c1cc(OC[C@H](N)CC(C)C)ccc21 [Example 19, (R)-8-((2-amino-4-methylpentyl)oxy)-4,6-dimethylbenzo[c][2,7]naphthyridin-5(6H)-one] |  | 10 to 100 |  | 10 to 100
Cc1nccc2c1c(=O)n(C)c1cc(OC[C@H](N)CC(C)C)c(Cl)cc21 [Example 20, (R)-8-((2-amino-4-methylpentyl)oxy)-9-chloro-4,6-dimethylbenzo[c][2,7]naphthyridin-5(6H)-one] |  | 1 to 10 |  | 1 to 10
Cc1nccc2c1c(=O)n(C)c1cc(OC[C@@H](N)CC3CC3)c(Cl)cc21 [Example 23, (S)-8-(2-amino-3-cyclopropylpropoxy)-9-chloro-4,6-dimethylbenzo[c][2,7]naphthyridin-5(6H)-one] |  |  | 0.12 | 1 to 10
Cc1nccc2c1c(=O)n(C)c1cc(OC[C@@H](N)CC3CCC3)c(Cl)cc21 [Example 24, (S)-8-(2-amino-3-cyclobutylpropoxy)-9-chloro-4,6-dimethylbenzo[c][2,7]naphthyridin-5(6H)-one] |  | 1 to 10 |  | 1 to 10
Cc1cc2c3ccnc(C)c3c(=O)n(C)c2cc1OC[C@@H](N)CC1CC1 [Example 25, (S)-8-(2-amino-3-cyclopropylpropoxy)-4,6,9-trimethylbenzo[c][2,7]naphthyridin-5(6H)-one] |  |  | 0.55 | 1 to 10
Cc1cc2c3ccnc(C)c3c(=O)n(C)c2cc1OC[C@@H](N)CC1CCC1 [Example 26, (S)-8-(2-amino-3-cyclobutylpropoxy)-4,6,9-trimethylbenzo[c][2,7]naphthyridin-5(6H)-one] |  |  | 2.9 | 1 to 10
Cc1nccc2c1c(=O)n(C)c1cc(OCC(C)(N)CC(C)C)ccc21 (centres unmarked) [Example 32, 8-((2-amino-2,4-dimethylpentyl)oxy)-4,6-dimethylbenzo[c][2,7]naphthyridin-5(6H)-one] |  |  | 3.9 | 10 to 100
Cc1nccc2c1c(=O)n(C)c1cc(OCC(C)(N)CC(C)C)c(Cl)cc21 (centres unmarked) [Example 41, 8-((2-amino-2,4-dimethylpentyl)oxy)-9-chloro-4,6-dimethylbenzo[c][2,7]naphthyridin-5(6H)-one] | 3.3 |  | 0.64 | 
CCc1cc2c3ccncc3c(=O)n(C)c2cc1OC[C@@H](N)CC(C)C [Example 46, (S)-8-(2-amino-4-methylpentyloxy)-9-ethyl-6-methylbenzo[c][2,7]naphthyridin-5(6H)-one] | 3.1 | 1 to 10 |  | 
CC(C)C[C@H](N)COc1cc2c(cc1C(C)C)c1ccncc1c(=O)n2C [Example 47, (S)-8-(2-amino-4-methylpentyloxy)-9-isopropyl-6-methylbenzo[c][2,7]naphthyridin-5(6H)-one] |  |  | 4.5 | 10 to 100
CC(C)C[C@H](N)COc1cc2c(cc1-c1cnco1)c1ccncc1c(=O)n2C [Example 48, (S)-8-(2-amino-4-methylpentyloxy)-6-methyl-9-(oxazol-5-yl)benzo[c][2,7]naphthyridin-5(6H)-one] | 1.8 | 1 to 10 |  | 
CC(C)C[C@H](N)COc1cc2c(cc1F)c1ccnc(N)c1c(=O)n2C [Example 52, (S)-4-amino-8-(2-amino-4-methylpentyloxy)-9-fluoro-6-methylbenzo[c][2,7]naphthyridin-5(6H)-one] | 2.4 | 1 to 10 |  | 
Cn1c(=O)c2cnccc2c2cc(C#N)c(OCC(N)CCC(F)(F)F)cc21 (centres unmarked) [Example 56, 8-((2-amino-5,5,5-trifluoropentyl)oxy)-6-methyl-5-oxo-5,6 dihydrobenzo[c][2,7]naphthyridine-9-carbonitrile] |  | 1 to 10 |  | 1 to 10
Cc1nccc2c1c(=O)n(C)c1cc(OC[C@@H](N)CC(C)C)c(Cl)cc21 [Example 62, (S)-8-((2-amino-4-methylpentyl)oxy)-9-chloro-4,6-dimethylbenzo[c][2,7]naphthyridin-5(6H)-one] |  | 1 to 10 |  | 1 to 10
Cc1cc2c3ccnc(C)c3c(=O)n(C)c2cc1OC[C@@H](N)CC(C)C [Example 63, (S)-8-(2-amino-4-methylpentyloxy)-4,6,9-trimethylbenzo[c][2,7]naphthyridin-5(6H)-one] |  | 1 to 10 |  | 1 to 10
Cc1nccc2c1c(=O)n(C)c1cc(OC[C@@H](N)CC(C)C)c(C#N)cc21 [Example 64, (S)-8-(2-amino-4-methylpentyloxy)-4,6-dimethyl-5-oxo-5,6-dihydrobenzo[c][2,7]naphthyridine-9-carbonitrile] | 0.6 | < 1 |  | 
Cc1nccc2c1c(=O)n(C)c1cc(OC[C@@H](N)CC(C)C)c(F)cc21 [Example 70, (S)-8-(2-amino-4-methylpentyloxy)-9-fluoro-4,6-dimethylbenzo[c][2,7]naphthyridin-5(6H)-one] |  | 1 to 10 |  | 1 to 10
Cc1nccc2c1c(=O)n(C)c1cc(OC[C@@H](N)CC(C)C)c(-c3cnco3)cc21 [Example 72, (S)-8-(2-amino-4-methylpentyloxy)-4,6-dimethyl-9-(oxazol-5-yl)benzo[c][2,7]naphthyridin-5(6H)-one] |  | < 1 |  | < 1
Cc1nccc2c1c(=O)n(C)c1cc(OCC(N)CCC(F)(F)F)c(C#N)cc21 (centres unmarked) [Example 73, 8-(2-amino-5,5,5-trifluoropentyloxy)-4,6-dimethyl-5-oxo-5,6-dihydrobenzo[c][2,7]naphthyridine-9-carbonitrile] |  | 1 to 10 |  | 1 to 10
